Experimental data as given in ChEMBL document CHEMBL1124973 (J Med Chem, 1990).

Key:
[1] = target: T1, Muscarinic acetylcholine receptor (Rattus norvegicus) (UniProt P08482+P08483+P08485+P08911+P10980)
Description: In vitro binding affinity against muscarinic acetylcholine receptor from rat cortical homogenates using [3H]N-methylscopolamine as radioligand

[2] = target: T1, Muscarinic acetylcholine receptor (Rattus norvegicus); remark: listed apart in the source
Description: In vitro binding affinity against muscarinic acetylcholine receptor from rat cortical homogenates using [3H]oxotremorine-M radioligand

[3] = pKa value was measured; assay type: physicochemical
[4] = target: T1, Muscarinic acetylcholine receptor (Rattus norvegicus); experiment: The selectivity ratio of Kapp of NMS/OXO -M; assay type: protein assay

Row | Compound | K app [1] [µM] | K app [2] [µM] | pKa [3] | Ratio [4]
1 | Cc1noc(C2CCN(C)C2)n1 (stereo not given) | 27 | 0.024 | – | –
2 | Nc1noc(C2CNCCN2)n1 (stereo not given) | > 50 | 0.45 | 7.1 | > 100
3 | Cc1noc(C2CC3CCC2N(C)C3)n1 (stereo in doubt; 23b) | 29 | 0.95 | – | –
4 | Cc1noc(C2=CCCN(C)C2)n1 | 2.1 | 0.0054 | – | –
5 | Cc1noc(C2CN(C)CCN2)n1 (stereo not given) | > 50 | 7.6 | 6.2 | > 6.6
6 | CN1CCC=C(c2nc(N)no2)C1 | 2.8 | 0.0026 | – | –
7 | Cc1noc(C2CN3CCC2CC3)n1 (stereo not given) | 0.44 | 0.00096 | – | –
8 | CN1CCCC(c2nc(N)no2)C1 (stereo not given) | 53 | 0.24 | – | –
9 | CN1CCC(c2nc(N)no2)C1 (stereo not given) | 17 | 0.01 | – | –
10 | Cc1noc(C2CC3CCC2NC3)n1 (stereo in doubt; 22b) | 5.2 | 0.0025 | – | –
11 | Cc1noc(C2CN3CCN2CC3)n1 (stereo not given) | 36 | 0.44 | 6 | –
12 | Nc1noc(C2CN3CCC2C3)n1 (stereo in doubt; 16b) | 1.6 | 0.0015 | – | –
13 | Nc1noc(C2CN3CCC2C3)n1 (stereo in doubt; 16a) | 0.031 | < 4.3e-05 | – | –
14 | Nc1noc(C2CN3CCN2CC3)n1 (stereo not given) | > 50 | 0.13 | 6.3 | –
15 | Cc1noc(C[N+](C)(C)C)n1 | 3.6 | 0.0014 | – | –
16 | Cc1noc(C2CCCCN(C)C2)n1 (stereo not given) | 18 | 0.73 | – | –

Row | Compound | K app [1] [µM] | K app [2] [µM] | pKa [3] | Ratio [4]
17 | Cc1noc(C2CN3CCC2C3)n1 (stereo in doubt; 15a) | 0.1 | 9e-05 | – | –
18 | C[N+](C)(C)CCOC(N)=O | 22 | 0.0049 | – | –
19 | Nc1noc(C2=CCCNC2)n1 | 3.3 | 0.0017 | – | –
20 | Cc1noc(C2CNCCN2)n1 (stereo not given) | > 50 | 0.64 | 7.1 | –
21 | Cc1noc(C2=CCCNC2)n1 | 2.4 | 0.0016 | – | –
22 | Nc1noc(C2CN3CCCC2C3)n1 (stereo in doubt; 17b) | 1.8 | 0.003 | – | –
23 | Nc1noc(C2CCNC2)n1 (stereo not given) | 21 | 0.04 | – | –
24 | Cc1noc(C2CC3CCC2N(C)C3)n1 (stereo in doubt; 23a) | 8.9 | 0.3 | – | –
25 | Cc1noc(C2CC3CCC2NC3)n1 (stereo in doubt; 22a) | 1.1 | 0.0032 | – | –
26 | Cc1noc(C2CN3CCC2C3)n1 (stereo in doubt; 15b) | 3.6 | 0.0021 | – | –
27 | CN1CCNC(c2nc(N)no2)C1 (stereo not given) | > 50 | 9.1 | 6.2 | > 5.5
28 | CN1CCN(C)C(c2nc(N)no2)C1 (stereo not given) | > 50 | > 14 | 6 | –
29 | Cc1noc(CN(C)C)n1 | > 50 | 3.3 | 5.6 | –
30 | Nc1noc(C2CN3CCC2CC3)n1 (stereo not given) | 0.6 | 0.00047 | – | –
31 | Nc1noc(C2CN3CCCC2C3)n1 (stereo in doubt; 17a) | 0.77 | 0.00067 | – | –
32 | Cc1noc(C2CCCN(C)C2)n1 (stereo not given) | 54 | 0.43 | – | –
